Results as given in article PMC11052077, “Discovery of Dolutegravir Derivative against Liver Cancer via Inducing Autophagy and DNA Damage” (Molecules, 2024).

Legend:
[1] = system: Huh7 cells; assay: CCK8 cell viability assay, Huh7; format: cell-based, human; details: for Cell Viability (100%), 20 μM, 48 h, Huh7: Huh7, CCK8, control taken as 100%; for IC50: 48 h, Huh7, CCK8, read-out: half maximal inhibitory concentration (IC50), Huh7
Experimental: (§1) This study aimed to assess the anti-proliferative activity of dolutegravir-1,2,3-triazole derivatives on hepatocellular carcinoma cell lines, Huh7 and hepG2. A comprehensive CCK8 assay was employed to evaluate the impact of these compounds on cell viability, with cells treated at a concentration of 20 μM for 48 h. HRM cells, a normal cell line, were included as a control for comparative analysis.
(§2) Human hepatocellular carcinoma cell lines Huh7 and hepG2 were obtained from ATCC (Manassas, VA, USA). Cells were cultured in DMEM or RPMI 1640 medium containing 10% FBS and 1% penicillin/streptomycin at 37 °C with a 5% CO2-humidified atmosphere.
(§3) CCK8 assay was used to measure cell viability. Cells with a density of 1 × 10^4 cells/well were seeded on 96-well plates. After adhesion, cells were treated with different diluted compounds or vehicle control DMSO and continued to be cultured for 48 h or 72 h, respectively. Then, CCK8 reagent was added for one hour incubation at 37 °C with 5% CO2. Absorbance was measured using a Microplate spectrophotometer (Thermo, Waltham, MA, USA) at 450 nm. The ratio of cell viability of control was taken as 100%. […] Then, IC50 of compounds were investigated using the prism statistical software 7.0.

[2] = system: hepG2 cells; assay: CCK8 cell viability assay, hepG2; format: cell-based, human; details: for Cell Viability (100%), 20 μM, 48 h, hepG2: hepG2, CCK8, control taken as 100%; for IC50: 48 h, hepG2, CCK8, read-out: half maximal inhibitory concentration (IC50), hepG2
Experimental: as §1, §2, §3

[3] = system: HRM cells (human renal mesangial cells); assay: in vitro; format: cell-based; details: 20 µM
Experimental: as §1, with “analysis. […]” for “analysis.”
as §3

| IC50 [1] [µM] | IC50 [2] [µM] | Compound | Cell Viability (100%), 20 μM, 48 h, Huh7 [1] [%] | Cell Viability (100%), 20 μM, 48 h, hepG2 [2] [%] | Cell Viability (100%), 20 μM, 48 h, HRM [3] [%] |
| --- | --- | --- | --- | --- | --- |
|  |  | COc1c2n(cc(C(=O)Nc3cccc(-c4cn(-c5ccccc5F)nn4)c3)c1=O)CC1OCCC(C)N1C2=O (stereo not drawn) [Compound 5a] | 83.32 | 90.43 | 71.18 |
|  |  | COc1cc([N+](=O)[O-])ccc1-n1cc(-c2cccc(NC(=O)c3cn4c(c(OC)c3=O)C(=O)N3C(C)CCOC3C4)c2)nn1 (stereo not drawn) [Compound 5b] | 110.94 | 93.94 | 112.94 |
| 18.7 ± 0.53 | 18.3 ± 1.14 | COc1c2n(cc(C(=O)Nc3cccc(-c4cn(-c5ccccc5C(F)(F)F)nn4)c3)c1=O)CC1OCCC(C)N1C2=O (stereo not drawn) [Compound 5c] | 36.28 | 54.14 | 2.65 |
|  |  | COc1c2n(cc(C(=O)Nc3cccc(-c4cn(-c5ccc(C(F)(F)F)cc5)nn4)c3)c1=O)CC1OCCC(C)N1C2=O (stereo not drawn) [Compound 5d] | 77.89 | 79.96 | 108.43 |
| 8.63 ± 0.33 | 12.1 ± 0.77 | COc1c2n(cc(C(=O)Nc3cccc(-c4cn(-c5cccc(C)c5)nn4)c3)c1=O)CC1OCCC(C)N1C2=O (stereo not drawn) [Compound 5f] | 15.92 | 12.96 | 66.43 |
|  |  | COc1c2n(cc(C(=O)Nc3cccc(-c4cn(-c5ccc(F)cc5)nn4)c3)c1=O)CC1OCCC(C)N1C2=O (stereo not drawn) [Compound 5g] | 90.24 | 105.19 | 103.67 |
|  |  | CCOc1ccc(-n2cc(-c3cccc(NC(=O)c4cn5c(c(OC)c4=O)C(=O)N4C(C)CCOC4C5)c3)nn2)cc1 (stereo not drawn) [Compound 5h] | 72.06 | 90.41 | 102.23 |
| 12.3 ± 0.26 | 9.43 ± 0.7 | COc1c2n(cc(C(=O)Nc3cccc(-c4cn(-c5ccccc5OC(F)(F)F)nn4)c3)c1=O)CC1OCCC(C)N1C2=O (stereo not drawn) [Compound 5i] | 7.95 | 24.84 | 70.03 |
|  |  | COc1ccc(-n2cc(-c3cccc(NC(=O)c4cn5c(c(OC)c4=O)C(=O)N4C(C)CCOC4C5)c3)nn2)cc1OC (stereo not drawn) [Compound 5j] | 65.52 | 77.13 | 108.54 |
| 16.9 ± 0.48 | 15.2 ± 1.15 | CCc1ccccc1-n1cc(-c2cccc(NC(=O)c3cn4c(c(OC)c3=O)C(=O)N3C(C)CCOC3C4)c2)nn1 (stereo not drawn) [Compound 5k] | 48.55 | 50.62 | 0.81 |
| 7.62 ± 1.03 | 10.6 ± 0.67 | COc1cccc(-n2cc(-c3cccc(NC(=O)c4cn5c(c(OC)c4=O)C(=O)N4C(C)CCOC4C5)c3)nn2)c1 (stereo not drawn) [Compound 5l] | 46.30 | 33.91 | 94.97 |
|  |  | CCc1ccc(-n2cc(-c3cccc(NC(=O)c4cn5c(c(OC)c4=O)C(=O)N4C(C)CCOC4C5)c3)nn2)cc1 (stereo not drawn) [Compound 5m] | 36.41 | 77.30 | 101.13 |
|  |  | COc1c2n(cc(C(=O)Nc3cccc(-c4cn(-c5ccc(C(C)(C)C)cc5)nn4)c3)c1=O)CC1OCCC(C)N1C2=O (stereo not drawn) [Compound 5n] | 54.04 | 77.30 | 108.06 |
|  |  | COc1c2n(cc(C(=O)Nc3cccc(-c4cn(-c5ccccc5)nn4)c3)c1=O)CC1OCCC(C)N1C2=O (stereo not drawn) [Compound 5o] | 67.64 | 80.21 | 100.28 |
| 7.85 ± 0.9 | 18.5 ± 2.85 | COc1c2n(cc(C(=O)Nc3cccc(-c4cn(-c5cc(C(F)(F)F)ccc5C(F)(F)F)nn4)c3)c1=O)CC1OCCC(C)N1C2=O (stereo not drawn) [Compound 5q] | 12.00 | 38.49 | 91.40 |
|  |  | COc1c2n(cc(C(=O)Nc3cccc(-c4cn(-c5cc(C(F)(F)F)cc(C(F)(F)F)c5)nn4)c3)c1=O)CC1OCCC(C)N1C2=O (stereo not drawn) [Compound 5r] | 80.13 | 78.52 | 101.27 |
| 10.8 ± 0.85 | 11.2 ± 0.32 | COc1ccccc1-n1cc(-c2cccc(NC(=O)c3cn4c(c(OC)c3=O)C(=O)N3C(C)CCOC3C4)c2)nn1 (stereo not drawn) [Compound 5t] | 29.33 | 41.93 | 73.24 |
| 12.6 ± 0.58 | 34.7 ± 5.13 | COc1c2n(cc(C(=O)Nc3cccc(-c4cn(-c5ccccc5Br)nn4)c3)c1=O)CC1OCCC(C)N1C2=O (stereo not drawn) [Compound 5u] | 33.46 | 47.16 | 100.10 |
| 42.2 ± 1.1 | 24.8 ± 2.21 | COc1c2n(cc(C(=O)Nc3cccc(-c4cn(-c5ccccc5Cl)nn4)c3)c1=O)CC1OCCC(C)N1C2=O (stereo not drawn) [Compound 5v] | 37.66 | 38.75 | 95.10 |
| 15.9 ± 0.31 | 25.7 ± 0.42 | COc1c2n(cc(C(=O)Nc3cccc(-c4cn(-c5ccccc5I)nn4)c3)c1=O)CC1OCCC(C)N1C2=O (stereo not drawn) [Compound 5w] | 49.87 | 54.35 | 92.77 |
|  |  | COc1c2n(cc(C(=O)Nc3cccc(-c4cn(-c5ccc(C)cc5)nn4)c3)c1=O)CC1OCCC(C)N1C2=O (stereo not drawn) [Compound 5y] | 79.52 | 69.40 | 103.82 |
|  |  | COc1c2n(cc(C(=O)Nc3cccc(-c4cn(-c5c(C)cc(C)cc5C)nn4)c3)c1=O)CC1OCCC(C)N1C2=O (stereo not drawn) [Compound 5z] | 66.22 | 63.22 | 100.35 |
|  |  | COc1c2n(cc(C(=O)Nc3cccc(-c4cn(Cc5cc(Br)cc(Br)c5)nn4)c3)c1=O)CC1OCCC(C)N1C2=O (stereo not drawn) [Compound 6a] | 75.97 | 66.48 | 84.46 |
|  |  | COc1c2n(cc(C(=O)Nc3cccc(-c4cn(Cc5ccccc5)nn4)c3)c1=O)CC1OCCC(C)N1C2=O (stereo not drawn) [Compound 6b] | 68.00 | 57.81 | 99.53 |
| 13.9 ± 0.81 | 27.8 ± 2.94 | COc1c2n(cc(C(=O)Nc3cccc(-c4cn(Cc5ccccc5Br)nn4)c3)c1=O)CC1OCCC(C)N1C2=O (stereo not drawn) [Compound 6c] | 39.13 | 46.80 | 105.55 |
|  |  | COc1cccc(Cn2cc(-c3cccc(NC(=O)c4cn5c(c(OC)c4=O)C(=O)N4C(C)CCOC4C5)c3)nn2)c1 (stereo not drawn) [Compound 6d] | 72.78 | 65.65 | 98.59 |
| 16.2 ± 0.37 | 19.7 ± 2.19 | COc1c2n(cc(C(=O)Nc3cccc(-c4cn(Cc5cccc(Br)c5)nn4)c3)c1=O)CC1OCCC(C)N1C2=O (stereo not drawn) [Compound 6e] | 20.45 | 55.14 | 102.27 |
|  |  | COc1c2n(cc(C(=O)Nc3cccc(-c4cn(Cc5ccccc5F)nn4)c3)c1=O)CC1OCCC(C)N1C2=O (stereo not drawn) [Compound 6f] | 54.58 | 63.23 | 102.19 |
|  |  | COc1c2n(cc(C(=O)Nc3cccc(-c4cn(Cc5ccccc5C)nn4)c3)c1=O)CC1OCCC(C)N1C2=O (stereo not drawn) [Compound 6g] | 39.11 | 52.95 | 101.52 |
|  |  | COc1c2n(cc(C(=O)Nc3cccc(-c4cn(Cc5ccccc5C(F)(F)F)nn4)c3)c1=O)CC1OCCC(C)N1C2=O (stereo not drawn) [Compound 6h] | 50.37 | 66.45 | 93.73 |
